Reference: ChEMBL document CHEMBL1201862, “PubChem BioAssay data set” (2004)
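Five concentrations, 48 hours, 96-well plates. The concentration for 50% growth inhibition is given as GI50.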 Active and inactive are the calls of the source. Cut-off read from the data, not from the text of the source: active = GI50 up to about 1.1 µM and inactive = higher.

Columns and labels:
Assay in all cases: NCI-60 cell line screen, 48 h
[1] = tested on: XF498
[2] = tested on: KM-20L2
[3] = tested on: DLD-1
[4] = tested on: HOP-18
[5] = tested on: DMS-114
[6] = tested on: M19-MEL
[7] = tested on: DMS-273
[8] = tested on: LXFL 529
[9] = tested on: RXF 631

| SMILES | GI50 [1] | GI50 [2] | GI50 [3] | GI50 [4] | GI50 [5] | GI50 [6] | GI50 [7] | GI50 [8] | GI50 [9] |
| --- | --- | --- | --- | --- | --- | --- | --- | --- | --- |
| COc1cc2c(c(OC)c1OC)-c1ccc(SC)c(=O)cc1C(NC=O)CC2 (configuration not stated) | < 0.01 µM (active) | < 0.01 µM (active) | < 0.01 µM (active) | > 45.7 µM (inactive) | < 0.01 µM (active) | < 0.01 µM (active) | < 0.01 µM (active) | – | – |
| CN(C)CCNC(=O)Cc1ccccc1Nc1c(Cl)cccc1Cl | – | 4.31 µM (inactive) | 14.2 µM (inactive) | – | 17.7 µM (inactive) | 14.8 µM (inactive) | 16.7 µM (inactive) | 17.7 µM (inactive) | – |
| Cc1nnc(N/N=C(/C(=O)C(C#N)c2ccccc2)C(C#N)c2ccccc2)n1N (configuration not stated) | – | 49.3 µM (inactive) | 22.6 µM (inactive) | 15.2 µM (inactive) | 3.01 µM (inactive) | 2.74 µM (inactive) | 17.7 µM (inactive) | 3.71 µM (inactive) | – |
| CN1C(=O)C(=O)N2c3ccc(Cl)cc3C3(c4ccccc4)N=CC12O3 (configuration not stated) | 3.13 µM (inactive) | 8.83 µM (inactive) | 2.83 µM (inactive) | 20.4 µM (inactive) | 3.21 µM (inactive) | 3.57 µM (inactive) | 4.35 µM (inactive) | 3 µM (inactive) | – |
| Cc1ccc(NC(=O)CCC(=O)C(C#N)c2ccc(Cl)cc2)cc1C (configuration not stated) | > 100 µM (inactive) | > 100 µM (inactive) | > 100 µM (inactive) | > 100 µM (inactive) | > 100 µM (inactive) | > 100 µM (inactive) | > 100 µM (inactive) | > 100 µM (inactive) | – |
| O=c1[nH]cc(C(F)(C(F)(F)F)C(F)(F)F)c(=O)[nH]1 | > 100 µM (inactive) | > 100 µM (inactive) | > 100 µM (inactive) | > 100 µM (inactive) | > 100 µM (inactive) | > 100 µM (inactive) | > 100 µM (inactive) | > 100 µM (inactive) | > 100 µM (inactive) |
| COc1ccc(Cc2nc3ccccc3s2)cc1OC | 15.3 µM (inactive) | 19.3 µM (inactive) | 16.6 µM (inactive) | 23.9 µM (inactive) | 15.7 µM (inactive) | 15.6 µM (inactive) | 15.6 µM (inactive) | 17.5 µM (inactive) | 17.7 µM (inactive) |
| CN(C)/C(F)=P\C(F)(F)F (configuration not stated) | > 100 µM (inactive) | > 100 µM (inactive) | > 100 µM (inactive) | > 100 µM (inactive) | > 100 µM (inactive) | > 100 µM (inactive) | > 100 µM (inactive) | > 100 µM (inactive) | – |
| COC(=O)C1CC/C(=N/c2ccc(C)cc2C)N1 (configuration not stated) | > 100 µM (inactive) | > 100 µM (inactive) | > 100 µM (inactive) | > 100 µM (inactive) | – | > 100 µM (inactive) | > 100 µM (inactive) | > 100 µM (inactive) | > 100 µM (inactive) |
| CCCCCCCCCCCCCCCC(=O)OCCOCCOCCOCCOCCOC(=O)CCCCCCCCCCCCCCC | – | > 100 µM (inactive) | > 100 µM (inactive) | > 100 µM (inactive) | > 100 µM (inactive) | > 100 µM (inactive) | > 100 µM (inactive) | > 100 µM (inactive) | > 100 µM (inactive) |
| C[C@@H]1C(=O)CC2C(C)(C)CCC[C@]2(C)[C@@]12CC[C@]1(C=COC1)O2 (some centres not stated) | – | 46.7 µM (inactive) | – | > 100 µM (inactive) | 35.6 µM (inactive) | 38.1 µM (inactive) | 34.2 µM (inactive) | – | – |
| O=[N+]([O-])c1cc([N+](=O)[O-])c(C(Cl)C(Cl)c2ccccc2)cc1C(Cl)C(Cl)c1ccccc1 (configuration not stated) | 1.87 µM (inactive) | 2.06 µM (inactive) | 1.71 µM (inactive) | 1.46 µM (inactive) | 1.7 µM (inactive) | 1.83 µM (inactive) | 2.03 µM (inactive) | 1.54 µM (inactive) | 2.07 µM (inactive) |
| Cc1csc2c1C(=O)c1ccsc1C2=O | 2.35 µM (inactive) | 4.28 µM (inactive) | 2.68 µM (inactive) | 1.95 µM (inactive) | 1.69 µM (inactive) | 0.175 µM (active) | 1.94 µM (inactive) | 3.42 µM (inactive) | – |
| COC(=O)c1c[nH]cc1CCc1c[nH]cc1C(=O)OC | > 100 µM (inactive) | > 100 µM (inactive) | – | – | – | > 100 µM (inactive) | > 100 µM (inactive) | > 100 µM (inactive) | – |
| O=c1c(O)c(-c2ccccc2)n(O)c2ccc(Cl)cc12 | – | 28.1 µM (inactive) | 26.8 µM (inactive) | 47.8 µM (inactive) | 23 µM (inactive) | – | 20.3 µM (inactive) | 23.8 µM (inactive) | 27.5 µM (inactive) |
